The values that follow come from US4098778A, “β-Endorphin analog” (Hoffmann-La Roche Inc., priority 1977, dated 1978).

The test system of assay [1] is guinea pig ileum. The experiment in a line: In vitro opiate activity, guinea pig ileum method of Kosterlitz et al. Format: cell-based. The settings on record: for In vitro opiate activity: guinea pig ileum, βc-endorphin = 100. The source says:
The opiate activity of the peptide of the invention, the parent peptide and other fragment analogs thereof as assayed in vitro by the guinea pig ileum method of Kosterlitz et al., Brit. J. Pharmacol. 39, 398 (1970) is seen in Table 2 below.

The subject of assay [2] is mice. The experiment in a line: Analgesic activity in mice by the tail-flick method, peptide injected icv. Format: in vivo. The conditions noted are these: for In vivo analgesic activity Relative Potency: molar basis, βc-endorphin = 100; for In vivo analgesic activity AD50: tail-flick, male ICR mice, (95% confidence limit). On the procedure: The analgesic activity of the synthetic products was assessed in mice by the tail-flick method of D'Amour and Smith J. Pharmacol. Exp. Ther. 72, 74 (1941). Male ICR mice weighing 25-30 g were used. The peptide was injected icv in a volume of 5 μl as described by Haley and McCormick, Br. J. Pharmacol. 12, 12 (1957). To evaluate the tail-flick response, a control latency (T0) was obtained from the mean of two latencies determined prior to the peptide injection; the test latencies (T1) were determined at various times after injection for each animal. "Percent analgesia" was calculated as [(T1 -T0)/(T2 -T0)] × 100; where the cutoff time (T2) was 10 sec. With a twofold increase in latency of reaction time of the reponse as a quantal index of inhibition, the median antinociceptive dose (AD50) and 95% confidence limits were calculated as described by Litchfield and Wilcoxon, J. Pharmacol. Exp. Ther. 96, 99 (1949).
On the technique in general: Thermal pain tests record how soon the animal reacts.

For βc -Endorphin-(1-5)-(28-31), the “In vitro opiate activity” value in assay [1] was determined as 35. Further, in assay [2], the “In vivo analgesic activity Relative Potency” value was under 0.1. Besides, the “In vivo analgesic activity AD50” value in assay [2] (icv) is over 86 μg/mouse.
In the case of “βc -endorphin (YGGFMTSEKSQTPLVTLFKNAIIKNAHKKGQ; Beta-endorphin; UniProt P01203 1-31, looked up) [parent peptide]”, the “In vitro opiate activity” value in assay [1] is on record as 100. Moreover, the “In vivo analgesic activity Relative Potency” value in assay [2] was determined as 100. In addition, the “In vivo analgesic activity AD50” value in assay [2] (icv) is given as 0.11 (0.07-0.17) μg/mouse.
On to βh -Endorphin-(1-5)-(16-31), for which the “In vitro opiate activity” value in assay [1] is recorded as 135. Further, the “In vivo analgesic activity Relative Potency” value in assay [2] amounted to 0.3. In addition, the “In vivo analgesic activity AD50” value in assay [2] (icv) is listed as 25.1(16.8-37.1) μg/mouse.
For “βc -endorphin (6-31) (TSEKSQTPLVTLFKNAIIKNAHKKGQ; Beta-endorphin; UniProt P01203 6-31, looked up, fragment) [βc -Endorphin-(6-31)]”, in assay [1] (activity as assayed in vitro), the “reversal of activity by naloxone” value was “not reversed by naloxone”. Besides, the “In vitro opiate activity” value in assay [1] stood at 4. The “potency relative to βc-endorphin as assayed in vitro” value in assay [1] (of βc-endorphin) turned out to be 4%. The “inhibition of the tail-flick response” value in assay [2] (doses of 42.5 and 85 μg, icv, mice) was “slight inhibition of the tail-flick response”. In addition, in assay [2] (mice), the “analgesic activity (tail flick method)” value was “intrinsic measurable analgesic activity”. Moreover, in assay [2], the “In vivo analgesic activity Relative Potency” value was under 0.1. Moreover, the “In vivo analgesic activity AD50” value in assay [2] (icv) was over 86 μg/mouse.
